Patent publication US20230248037A1, “FLAVOUR ADDITIVES” (MARS, INCORPORATED, priority 2012, published 2023)

Columns and labels:
[1] = tested on: T1R1/T1R3 receptor (umami receptor); test: In vitro screening for binding and activation of the umami receptor; type: cell-based, cat; conditions: for binding to and activation of the umami receptor: in silico modelling and in vitro assays using a non-human umami receptor, screening in the presence of 0.2 mM IMP
Protocol: In vitro screening was carried out in order to establish which first amino acids bind and activate the umami receptor.
In vitro screening was carried out in order to establish which second amino acids bind and activate the umami receptor.

cats = test: 2-bottle choice difference test of tastant solutions in water, intake by cats; set-up: species or system cat; conditions: amino acids of the second group
Protocol: Cats were allowed access to water containing either 25 mM proline+25 mM histidine with a composition comprising 50 mM histidine. The methodology used a 2-bottle choice test with 24 cats (the final number of cats for each test can vary due to data being discarded by spillage, etc.). Cats were housed individually during trial periods and had free access to water available between testing periods. The test involved a choice test between the tastant/mixture at a given concentration dissolved in deionised water versus deionised water only or another tastant/mixture. Control was made for positional bias (e.g. A/B exposure 1 and B/A exposure 2) and evaporation loss. The testing time was 36 hours (i.e. 18 hours per day, allowing a two-day crossover). Following two consecutive days of each testing, cats had two consecutive days of rest. Cats were offered a dry diet as a single meal at the start of the test period for one hour, calculated to meet the individual requirements for each cat.

Row | SMILES | binding to and activation of the umami receptor [1] | acceptance (flavour effect) in in vivo tests (cats) | binding to the feline umami receptor [1]
1 | NCC(=O)O [glycine] | able to bind to and activate the umami receptor to different extents | – | –
2 | N[C@@H](Cc1ccccc1)C(=O)O [phenylalanine] | able to bind to and activate the umami receptor to different extents | – | –
3 | NCCCC[C@H](N)C(=O)O [lysine] | – | positive acceptance | –
4 | C[C@@H](O)[C@H](N)C(=O)O [threonine] | – | positive acceptance | –
5 | CC(C)C[C@H](N)C(=O)O [leucine] | able to bind to and activate the umami receptor to different extents | – | –
6 | C[C@H](N)C(=O)O [alanine] | able to bind to and activate the umami receptor to different extents | – | –
7 | NC(=O)C[C@H](N)C(=O)O [asparagine] | able to bind to and activate the umami receptor to different extents | – | –
8 | CSCC[C@H](N)C(=O)O [methionine] | able to bind to and activate the umami receptor to different extents | – | –
9 | O=C(O)[C@@H]1C[C@@H](O)CN1 [hydroxyproline] | – | positive acceptance | –
10 | NC(=O)CC[C@H](N)C(=O)O [glutamine] | – | positive acceptance | –
11 | N[C@@H](CCC(=O)O)C(=O)O [glutamic acid] | – | positive acceptance | does not bind
12 | N[C@@H](Cc1c[nH]cn1)C(=O)O [histidine] | able to bind to and activate the umami receptor to different extents | – | –
13 | NCCC[C@H](N)C(=O)O [ornithine] | – | positive acceptance | –
14 | O=C(O)[C@@H]1CCCN1 [proline] | – | positive acceptance | –
15 | CC[C@H](C)[C@H](N)C(=O)O [isoleucine] | – | positive acceptance | –
16 | N[C@@H](Cc1c[nH]c2ccccc12)C(=O)O [tryptophan] | able to bind to and activate the umami receptor to different extents | – | –
17 | N[C@@H](CS)C(=O)O [cysteine] | able to bind to and activate the umami receptor to different extents | – | –
18 | N[C@@H](CSSC[C@H](N)C(=O)O)C(=O)O [cystine] | – | positive acceptance | –
19 | N[C@@H](Cc1ccc(O)cc1)C(=O)O [tyrosine] | able to bind to and activate the umami receptor to different extents | – | –
20 | N[C@@H](CO)C(=O)O [serine] | able to bind to and activate the umami receptor to different extents | – | –
21 | CC(C)[C@H](N)C(=O)O [valine] | – | positive acceptance | –
22 | N[C@@H](CC(=O)O)C(=O)O [aspartic acid] | – | positive acceptance | does not bind
